Laboratory results reported in patent publication US11986512B2, “Compositions and methods for cancer therapy” (Thetis Pharmaceuticals LLC, priority 2021, dated 2024).

What was measured:
LLC cells [1] = assay: Lewis lung carcinoma (LLC) model, with and without anti-PD1 or cisplatin; format: in vivo, C57BL/6J male mice; settings: monotherapy, 5 mg/kg, i.p, Q5D
Method: A representative compound of Formula IV, RvE1 magnesium dilysinate, was tested for efficacy in several mouse models of cancer, including the Panc2-H7 model of pancreatic cancer, the Lewis lung carcinoma (LLC) model, the MC38 model of colorectal cancer, and the B16F10 model of melanoma. These models are well established, highly tumorigenic syngeneic models in which murine cancer cell lines are injected subcutaneously (SC) into the dorsum of C57BL/6J mice. If left untreated, these tumors grow rapidly and lead to death or euthanasia, per protocol. As detailed below in Examples 1-9 and the accompanying figures, bis RvE1 Mg-di-lysinate (Compound 1) was unexpectedly effective as an anti-cancer agent in each of these model systems when administered in a less than daily (LTD) dosing regimen. […] Without being bound by any theory, the surprising efficacy of LTD dosing of resolvins in the cancer model systems described here may be the result of durable effects on the tumor microenvironment including changes in immune cell phenotype, vascularization, stromal phenotype, and antigen presentation, as well as durable effects on the T-cell compartment such as T-cell priming and increased tumor-infiltrating lymphocytes.
To expand our understanding of bis RvE1 Mg-di-lysinate as a cancer therapy that could be used in combination with other cancer therapies including immune checkpoint inhibitors, bis RvE1 Mg-di-lysinate monotherapy and in combination either anti-PD1 or cisplatin was investigated in the LLC model of non-small cell lung cancer, which is a model known to unresponsive to anti-PD1 therapy and moderately responsive to cisplatin. Yu et al., J Exp Clin Cancer Res. 2010; 29(1):46; Lechner et al., J Immunother. 2013; 36(9):477-489. A total of forty (40) C57BL/6J male mice were injected subcutaneously with 1×10e6 living LLC cells. […] In addition, bis RvE1 Mg-di-lysinate was evaluated in combination with anti-PD1 or cisplatin. […]

LLC cells [2] = assay: Metastatic LLC resection model, perioperative (neo-adjuvant) treatment; format: in vivo, C57BL/6J male mice; settings: 5 mg/kg, i.p, Q6D, first dose 24 hours prior to surgery; compared to vehicle control
Method: To investigate the efficacy of LTD dosing of bis RvE1 Mg-di-lysinate as neo-adjuvant therapy, a study was conducted in the metastatic LLC resection model with treatment initiated in the perioperative window. A total of fifteen (15) C57BL/6J male mice were injected subcutaneously with 1×10e6 living LLC cells. Once tumors reached approximately 1200-1500 mme3 in size, the mice were randomized (n=4-8 per group) to treatment with vehicle (SC, Q6D), bis RvE1 Mg-di-lysinate (300 ug/kg, SC, Q6D), or cisplatin (5 mg/kg, i.p, Q6D), followed by surgical resection of the tumors. The mice in the vehicle and cisplatin groups received an initial dose twenty-four (24) hours prior to surgery, and the mice treated with bis RvE1 Mg-di-lysinate received an initial dose two (2) hours prior to surgery. All mice were sacrificed on day 19 following the death of three mice in the vehicle control group on day 18.

[3] = system: CD4+ and CD8+ cells in the liver; settings: administration of either RvD1 or RvE1; cited from earlier work
HPV tumorigenesis = settings: cited from earlier work
KPC cells = assay: Orthotopic KPC model of pancreatic cancer, survival; format: in vivo, C57BL/6J male mice
Method: To expand our understanding of less than daily (LTD) dosing of bis RvE1 Mg-di-lysinate as a cancer therapy that could be used in combination with chemotherapy, bis RvE1 Mg-di-lysinate (Compound 1) was investigated in the orthotopic KPC model of pancreatic cancer. A total of fifteen (15) C57BL/6J male mice were implanted orthotopically with 5×10e5 living KPC cells into the pancreas. The mice were randomized (n=7-8) to treatment with bis RvE1 Mg-di-lysinate (300 ug/kg, SC, Q6D) with or without gemcitabine (50 mg/kg, IP, Q3D, up to 6 doses) one day after tumor cell implantation.

[4] = system: polymorphonuclear leukocyte (PMN) recruitment; settings: equimolar dose; cited from earlier work

SMILES: N.N.[Cl][Pt][Cl] [cisplatin, reference compound]
- tumor volume (Day 11 vs Day 0) (LLC cells [1]): failed to demonstrate efficacy as monotherapy compared to placebo
- number of lung metastases (LLC cells [2]): failed to show a significant reduction
- number of mice with lymph node metastasis (LLC cells [2]): failed to show a significant reduction

SMILES: CC/C=C\C[C@H](O)/C=C/C=C\C=C\C=C\[C@@H](O)[C@@H](O)C/C=C\CCC(=O)O [RvD1, 7S,8R,17S-trihydroxy-4Z,9E,11E,13Z,15E,19Z-docosahexaenoic acid]
- levels of CD4+ and CD8+ cells in the liver [3]: markedly downregulated levels of CD4+ and CD8+ cells in the liver
- tumor infiltration levels of CD4+ and CD8+ T cells (HPV tumorigenesis; in vivo): did not modify tumor infiltration levels of CD4+ and CD8+ T cells
- tumor progression (HPV tumorigenesis; via modulated activity of tumor-associated neutrophils (PMN)): reduce tumor progression

SMILES: Nc1ccn([C@@H]2O[C@H](CO)[C@@H](O)C2(F)F)c(=O)n1 [gemcitabine, reference compound]
- mice alive as of the last observation (day 250) (KPC cells; gemcitabine monotherapy group): zero of eight mice
- mean survival (KPC cells; gemcitabine monotherapy, 50 mg/kg, IP, Q3D, up to 6 doses): 25 days

SMILES: CCC(=O)/C=C/C=C\C[C@@H](O)/C=C/C=C/C=C\[C@@H](O)CCCC(=O)O [Compound 18-oxo-RvE1, 18-oxo-RvE1]
- activity in zymosan-induced peritonitis (PMN recruitment) [4]: devoid of activity

SMILES: CC[C@@H](O)/C=C/C=C\C[C@@H](O)/C=C/C=C/C=C\[C@@H](O)CCCC(=O)O [RvE1, 5S,12R,18R-trihydroxy-6Z,8E,10E,14Z,16E-eicosapentaenoic acid]
- activity in zymosan-induced peritonitis (PMN recruitment) [4]: potently reduced polymorphonuclear leukocyte (PMN) recruitment
- levels of CD4+ and CD8+ cells in the liver [3]: markedly downregulated levels of CD4+ and CD8+ cells in the liver
